Experimental data from patent publication US8044089B2, “3-3-di-substituted-oxindoles as inhibitors of translation initiation” (President and Fellows of Harvard College, priority 2004, dated 2011).
Read-outs that look alike come from different tables or passages of the source.

Assays:
A549 lung cancer cells = assay: SRB growth inhibition of A549 lung cancer cells; type: cell-based, human; details: A549 lung cancer cells, unit inferred, read-out: SRB (IC50 for growth inhibition of A549 lung cancer cells)
Excerpt: As a non-limiting example, compounds 1272 and 1273 (set forth in Table 1) were synthesized starting from 3-bromoaniline, which upon condensation with hydroxylamine and chloral hydrate followed by concentrated sulfuric acid yielded an inseparable regioisomeric mixture of 4- and 6-bromo isatins. The addition of the two phenyl groups to the three position of the oxindole allowed easy chromatographic separation of the 4- and 6-bromo-3,3-diphenyloxindoles 1272 and 1273. Table 1 sets forth biological data for diaryloxindole compounds including, but not limited to 1272 and 1273. For Tables 1-14, Ca^2+ refers to Ca^2+ release from intracellular stores where a “+” denotes release and a “+/−” denotes inconclusive; eIF2α-P refers to phosphorylation of eIF2α measured by Western blot; SRB refers to the inhibitory concentration to reduce cell growth by 50% (IC50) for growth inhibition of A549 lung cancer cells; and n.d. is not determined. […]

[1] = test system: intracellular Ca^2+ stores; assay: Ca2+ release from intracellular stores (FURA-2AM loaded cells); type: cell-based; set-up: key to Ca^2+ (Ca^2+ release from intracellular stores): a “+” denotes release; a “+/−” denotes inconclusive
Excerpt: As a non-limiting example, compounds 1272 and 1273 (set forth in Table 1) were synthesized starting from 3-bromoaniline, which upon condensation with hydroxylamine and chloral hydrate followed by concentrated sulfuric acid yielded an inseparable regioisomeric mixture of 4- and 6-bromo isatins. The addition of the two phenyl groups to the three position of the oxindole allowed easy chromatographic separation of the 4- and 6-bromo-3,3-diphenyloxindoles 1272 and 1273. Table 1 sets forth biological data for diaryloxindole compounds including, but not limited to 1272 and 1273. For Tables 1-14, Ca^2+ refers to Ca^2+ release from intracellular stores where a “+” denotes release and a “+/−” denotes inconclusive; eIF2α-P refers to phosphorylation of eIF2α measured by Western blot; SRB refers to the inhibitory concentration to reduce cell growth by 50% (IC50) for growth inhibition of A549 lung cancer cells; and n.d. is not determined.
Without intending to be bound by theory, the mechanism of action of translation initiation inhibitors is set forth in FIG. 1, and includes the depletion (complete or partial depletion) of intracellular calcium (Ca^2+) stores and phosphorylation of eIF2α. Compounds synthesized using the approaches described herein were screened for their ability to partially deplete intracellular Ca^2+ stores using FURA-2AM loaded cells (Benzaquen et al. (1995) Nature Medicine, 1:534, incorporated herein by reference in its entirety for all purposes). A limited subset of compounds were further screened for their ability to deplete endoplasmic reticulum (ER) Ca^2+. The Ca^2+ content of the ER was monitored using ER-targeted, Ca^2+ sensitive, recombinant proteins. These recombinant proteins emitted light by fluorescent resonance energy transfer (FRET) as a function of the Ca^2+ content of the medium. Such assays are previously described (Miyawaki, A.; Mizuno, H.; Llopis, J.; Tsien, R. Y.; Jalink, K. Cameleons as cytosolic and intra-organellar calcium probes, Oxford University Press: Oxford, London, 2001; pp 3-16, incorporated herein by reference in its entirety for all purposes). Compounds that depleted Ca^2+ were further evaluated for their ability to phosphorylate eIF2α. eIF2α phosphorylation was measured by Western blot analysis using the phospho-specific anti-eIF2α antibody, as previously described (Aktas et al. (1998) Proc. Natl. Acad. Sci. USA, 95:8280, incorporated herein by reference in its entirety for all purposes).

IC50 (A549 lung cancer cells)	IC50 (A549 lung cancer cells; Homo sapiens)	Structure (SMILES)	Ca^2+ (Ca^2+ release from intracellular stores) [1]
12 µM	–	CC(C)(C)c1ccc(O)c(C2(c3ccccc3)CNc3ccccc32)c1 (stereo not drawn) [Compound 1182]	+
3 µM	–	CC(C)(C)c1ccc(O)c(C2(c3cc(C(C)(C)C)ccc3O)C(=O)Nc3ccccc32)c1 [Compound 1195]	+
8 µM	–	O=C1Nc2ccccc2C1(c1ccccc1)c1cc(OCCCCBr)ccc1O (stereo not drawn) [Compound 1203]	+
5 µM	–	[N-]=[N+]=NCCCCOc1ccc(O)c(C2(c3ccccc3)C(=O)Nc3ccccc32)c1 (stereo not drawn) [Compound 1219]	+
3 µM	–	CC(C)(C)c1ccc(O)c(C2(c3ccccc3)C(=O)Nc3ccc(NS(=O)(=O)c4cccc5ccccc45)cc32)c1 (stereo not drawn) [Compound 1238]	+/−
> 20 µM	–	O=C1Nc2ccccc2C1(c1ccccc1)c1cc(C(F)(F)F)ccc1O (stereo not drawn) [Compound 1243]	–
4 µM	–	CC(C)(C)c1ccc(O)c(C2(c3ccccc3)C(=O)N(c3ccccc3)c3ccccc32)c1 (stereo not drawn) [Compound 1255]	–
> 20 µM	–	O=C1Nc2ccccc2C1(c1ccc(O)cc1)c1ccc(O)cc1 [Compound 1259]	–
10 µM	–	CN(C)c1ccc(C2(c3ccc(O)cc3)C(=O)Nc3ccccc32)cc1 (stereo not drawn) [Compound 1262]	+/−
–	> 20 µM	CC(C)(C)c1ccc2c(c1)C1(c3ccccc3)C(=O)N(C/C=C\CO2)c2ccccc21 (stereo not drawn) [Compound 1291]	–
8 µM	–	O=C1N(c2ccccc2)c2ccccc2C1(c1ccccc1)c1ccccc1 [Compound 1300]	–
15 µM	–	C=CCN1C(=O)C(c2ccccc2)(c2ccccc2)c2ccccc21 [Compound 1303]	+/−
10 µM	–	O=C1N(CO)c2ccccc2C1(c1ccccc1)c1ccccc1 [Compound 1304]	–
11 µM	–	CC(C)(C)c1ccc(S(=O)(=O)N2C(=O)C(c3ccccc3)(c3ccccc3)c3ccccc32)cc1 [Compound 1311]	–
–	> 20 µM	Cc1cc2c(c(C3(c4ccccc4)C(=O)Nc4ccccc43)c1)NCC2 (stereo not drawn) [Compound 1313]	+
2 µM	–	CC(C)(C)c1ccc(OS(=O)(=O)CC23CCC(CC2=O)C3(C)C)c(C2(c3ccccc3)C(=O)Nc3ccccc32)c1 (stereo not drawn) [Compound 1319]	+
> 20 µM	–	CC(=O)Nc1cc(O)c(C)cc1C1(c2ccccc2)C(=O)Nc2ccccc21 (stereo not drawn) [Compound 1639]	–

More lines, now with the values behind:

Structure (SMILES)	IC50 (A549 lung cancer cells)	IC50 (A549 lung cancer cells; Homo sapiens)	Ca^2+ (Ca^2+ release from intracellular stores) [1]
COc1ccc(C2(c3ccc(OC)cc3O)C(=O)Nc3ccccc32)c(O)c1 [Compound 1163]	10 µM	–	+
COC(=O)C(N)Cc1ccc(O)c(C2(c3ccccc3)C(=O)Nc3ccccc32)c1 (stereo not drawn) [Compound 1171]	–	–	+
CC(C)(C)c1ccc(O)c(C2(c3ccccc3)C(=O)Nc3c(Br)cccc32)c1 (stereo not drawn) [Compound 1196]	3 µM	–	+
CN(C)CCCCOc1cccc(C2(c3ccccc3)C(=O)Nc3ccccc32)c1O (stereo not drawn) [Compound 1199]	> 20 µM	–	+
[N-]=[N+]=NCCCCOc1cccc(C2(c3ccccc3)C(=O)Nc3ccccc32)c1O (stereo not drawn) [Compound 1200]	3 µM	–	+
O=C1Nc2ccccc2C1(c1ccccc1)c1cc(O)ccc1O (stereo not drawn) [Compound 1201]	–	–	+
C=CCCCOc1ccc(O)c(C2(c3ccccc3)C(=O)Nc3ccccc32)c1 (stereo not drawn) [Compound 1202]	6 µM	–	+
CN(C)CCCCOc1ccc(O)c(C2(c3ccccc3)C(=O)Nc3ccccc32)c1 (stereo not drawn) [Compound 1216]	> 20 µM	–	+/−
O=C1NC(=O)C(Cc2ccc(O)c(C3(c4ccccc4)C(=O)Nc4ccccc43)c2)S1 (stereo not drawn) [Compound 1220]	16 µM	–	+/−
CC(C)(C)c1ccc(O)c(C2(c3cccs3)C(=O)Nc3ccccc32)c1 (stereo not drawn) [Compound 1222]	9 µM	–	+
C=CCOCN1C(=O)C(c2ccccc2)(c2cc(C(C)(C)C)ccc2O)c2ccccc21 (stereo not drawn) [Compound 1227]	3 µM	–	+
NCCCCOc1ccc(O)c(C2(c3ccccc3)C(=O)Nc3ccccc32)c1 (stereo not drawn) [Compound 1228]	5 µM	–	+
CC(C)(C)c1cccc(C2(c3ccc(O)cc3)C(=O)Nc3ccccc32)c1 (stereo not drawn) [Compound 1232]	4 µM	–	+
O=C1Nc2ccccc2C1(c1ccc(O)cc1)c1ccc(Oc2ccccc2)cc1 (stereo not drawn) [Compound 1260]	12 µM	–	+
O=C1Nc2ccccc2C1(c1ccc(O)cc1)c1ccc(-c2ccccc2)cc1 (stereo not drawn) [Compound 1261]	10 µM	–	+
O=C1Nc2ccc(OC(F)(F)F)cc2C1(c1ccccc1)c1ccccc1 [Compound 1263]	8 µM	–	+
CCCc1ccc(C2(c3ccccc3)C(=O)Nc3ccccc32)cc1 (stereo not drawn) [Compound 1296]	11 µM	–	+
CN1C(=O)C(c2ccccc2)(c2ccccc2)c2ccccc21 [Compound 1301]	–	–	+

Structure (SMILES)	IC50 (A549 lung cancer cells)	IC50 (A549 lung cancer cells; Homo sapiens)	Ca^2+ (Ca^2+ release from intracellular stores) [1]
O=C1N(Cc2ccc(Cl)cc2)c2ccccc2C1(c1ccccc1)c1ccccc1 [Compound 1302]	14 µM	–	–
CCCCOc1ccc(S(=O)(=O)N2C(=O)C(c3ccccc3)(c3ccccc3)c3ccccc32)cc1 [Compound 1306]	> 20 µM	–	–
O=C1N(S(=O)(=O)c2ccc(Oc3ccccc3)cc2)c2ccccc2C1(c1ccccc1)c1ccccc1 [Compound 1307]	> 20 µM	–	–
CC(=O)Nc1ccc(S(=O)(=O)N2C(=O)C(c3ccccc3)(c3ccccc3)c3ccccc32)cc1 [Compound 1308]	11 µM	–	–
CC(C)(C)c1ccc(O)c(C2(c3ccccc3)C(=O)Nc3ccc(F)cc32)c1 (stereo not drawn) [Compound 1312]	4 µM	–	+
O=C1Nc2ccccc2C1(c1cccc(Cl)c1)n1ccnc1 (stereo not drawn) [Compound 1314]	> 20 µM	–	+
O=C1Nc2ccccc2C1(c1ccccc1)n1ccnc1 (stereo not drawn) [Compound 1315]	> 20 µM	–	–
O=C1Nc2ccccc2C1(c1cccc(F)c1)n1ccnc1 (stereo not drawn) [Compound 1316]	> 20 µM	–	–
Cc1cccc(C2(n3ccnc3)C(=O)Nc3ccccc32)c1 (stereo not drawn) [Compound 1317]	> 20 µM	–	–
CC(C)(C)c1cccc(C2(n3ccnc3)C(=O)Nc3ccccc32)c1 (stereo not drawn) [Compound 1318]	2 µM	–	+
CC(C)(C)c1ccc(OCC#N)c(C2(c3ccccc3)C(=O)N(CC#N)c3ccccc32)c1 (stereo not drawn) [Compound 1320]	–	4 µM	–
CC(C)(C)c1ccc(OC(=O)CCCCCCC(=O)O)c(C2(c3ccccc3)C(=O)Nc3ccccc32)c1 (stereo not drawn) [Compound 1321]	16 µM	–	+
CC(C)(C)c1ccc(OC(=O)CCCC(=O)NO)c(C2(c3ccccc3)C(=O)Nc3ccccc32)c1 (stereo not drawn) [Compound 1323]	3 µM	–	+
COc1ccc(C2(c3ccccc3)C(=O)Nc3ccccc32)c(CC(=O)O)c1 (stereo not drawn) [Compound 1327]	> 20 µM	–	–
CC(C)(C)c1ccc(O)c(C2(c3ccccc3)C(=O)N(CC(=O)O)c3ccccc32)c1 (stereo not drawn) [Compound 1339]	> 20 µM	–	–
Cc1cc(C2(c3ccccc3)C(=O)Nc3c(C(=O)O)cccc32)c(NS(=O)(=O)c2ccc(C(C)(C)C)cc2)cc1O (stereo not drawn) [Compound 1431]	> 20 µM	–	–
Cc1cc(O)c(NS(=O)(=O)c2ccc(C(C)(C)C)cc2)cc1C1(c2ccccc2)C(=O)Nc2ccccc21 (stereo not drawn) [Compound 1648]	–	–	+
